Assay results from patent publication US20240424113A1, “CONJUGATES COMPRISING ANTIFUNGALS AND HEAT SHOCK PROTEIN 90 (HSP90) INHIBITORS AND METHODS OF USE THEREOF” (Bright Angel Therapeutics Inc., priority 2021, published 2024).
In brackets after ≈: the same amount, converted by molar mass.

Legend:
CaCl2 = experiment: Antifungal sensitivity testing (broth microdilution MIC); type: cell-based; details: Table 4; 96-well broth microdilution
Method: Antifungal Sensitivity Testing. Minimum inhibitory concentrations (MICs) were determined in flat bottom, 96-well plate format using a modified broth microdilution protocol as previously described (Singh et al., PLoS Pathog. 5, e1000532 (2009); LaFayette et al., PLoS Pathog. 6, 79-80 (2010)). Compounds were formulated in dimethyl sulfoxide (DMSO, Sigma-Aldrich Co.); fluconazole was dissolved in sterile ddH2O. Each compound was tested in duplicate in at least two independent experiments. To test for fungicidal activity, cultures from MIC plates were spotted on YPD agar plates using a spotter (Frogger, V&P Scientific, Inc.). Plates were photographed after 24 h of incubation at 30° C.

[1] = target: Hsp90 Nuclear Binding Domain (NBD) (Candida albicans (strain SC5314 / ATCC MYA-2876) (Yeast), UniProt P46598); experiment: Surface Plasmon Resonance (SPR) binding, C. albicans Hsp90 NBD; details: biotinylated Hsp90 NBD on streptavidin chip, 25° C., 1:1 binding model
Method: (§1) Surface Plasmon Resonance (SPR) Experiments. SPR experiments were performed on a Biacore S200 instrument at 25° C. Biotinylated Hsp90 Nuclear Binding Domain (NBD) was diluted to 40 μg/mL and immobilized on a streptavidin chip (Sensor Chip SA, GE Healthcare) at a density of 2000-2500 response units (RU) on the biosensor surface.
(§2) Recombinant Hsp90 NBDs were expressed and purified as previously described (Whitesell et al., Nat Commun 10, 402 (2019)) with the following modification; Hsp90 NBD expression constructs were modified to encode a C-terminal AviTag for site-specific on-column biotinylation with a BirA biotin-ligase kit (Avidity LLC; BirA-500). Stock protein solutions in 50% glycerol were stored at −20° C. until dilution into relevant buffers. Binding experiments were done in HBS-P (0.01 M HEPES, pH 7.4, 0.15 M NaCl, 0.005% v/v surfactant P20, GE Healthcare) with 2% DMSO at flow rate of 40 μL/min. Test compounds (dilution series) were injected with a 60 s association time and 600 s dissociation time. Resulting sensorgrams were analyzed with a fit to a 1:1 binding model, using BIA evaluation software.

[2] = target: Hsp90 Nuclear Binding Domain (NBD) (Aspergillus fumigatus, UniProt P40292); experiment: Surface Plasmon Resonance (SPR) binding, A. fumigatus Hsp90 NBD; details: biotinylated Hsp90 NBD on streptavidin chip, 25° C., 1:1 binding model; NB undefined
Method: as §1, §2

Sequence of Hsp90 Nuclear Binding Domain (NBD) (Candida albicans (strain SC5314 / ATCC MYA-2876) (Yeast), UniProt P46598) (P46598 1-218 limits assumed): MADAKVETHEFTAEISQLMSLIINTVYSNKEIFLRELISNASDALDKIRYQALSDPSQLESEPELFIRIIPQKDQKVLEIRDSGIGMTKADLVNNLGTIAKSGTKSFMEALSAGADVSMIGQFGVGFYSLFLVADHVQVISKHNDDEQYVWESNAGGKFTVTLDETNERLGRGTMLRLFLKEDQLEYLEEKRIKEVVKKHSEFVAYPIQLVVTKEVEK
Sequence of Hsp90 Nuclear Binding Domain (NBD) (Aspergillus fumigatus, UniProt P40292) (P40292 whole entry, looked up, the tested form may be a part): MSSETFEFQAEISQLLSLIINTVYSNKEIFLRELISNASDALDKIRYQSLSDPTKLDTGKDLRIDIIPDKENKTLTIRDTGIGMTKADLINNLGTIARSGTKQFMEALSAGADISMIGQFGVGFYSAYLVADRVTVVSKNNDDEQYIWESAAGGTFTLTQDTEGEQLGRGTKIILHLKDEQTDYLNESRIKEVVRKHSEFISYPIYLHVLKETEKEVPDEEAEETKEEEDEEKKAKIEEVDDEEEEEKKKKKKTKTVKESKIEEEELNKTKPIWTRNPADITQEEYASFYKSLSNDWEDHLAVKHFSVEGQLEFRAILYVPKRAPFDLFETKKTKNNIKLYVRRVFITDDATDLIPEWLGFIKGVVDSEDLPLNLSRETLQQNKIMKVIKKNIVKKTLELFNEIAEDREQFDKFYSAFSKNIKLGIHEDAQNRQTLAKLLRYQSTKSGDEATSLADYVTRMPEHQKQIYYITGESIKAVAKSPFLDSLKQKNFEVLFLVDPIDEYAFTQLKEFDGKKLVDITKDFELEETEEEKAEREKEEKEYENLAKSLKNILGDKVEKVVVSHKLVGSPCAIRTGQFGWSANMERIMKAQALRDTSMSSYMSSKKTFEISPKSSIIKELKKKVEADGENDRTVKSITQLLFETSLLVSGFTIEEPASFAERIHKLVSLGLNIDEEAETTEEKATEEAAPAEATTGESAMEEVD

| Structure (SMILES) | MIC50 (CaCl2) [µM] | Kd [1] [nM] | Kd [2] [nM] |
| --- | --- | --- | --- |
| Nc1nc2sc(CN[C@H]3[C@@H]4CN(C[C@@](O)(Cn5cncn5)c5ccc(F)cc5F)C[C@@H]43)cc2n(-c2ccc3c(c2)N(c2ccccc2)CCO3)c1=O [Compound I-127, 3-amino-6-((((1R,5S,6S)-3-((R)-2-(2,4-difluorophenyl)-2-hydroxy-3-(1H-1,2,4-triazol-1-yl)propyl)-3-azabicyclo[3.1.0]hexan-6-yl)amino)methyl)-1-(4-phenyl-3,4-dihydro-2H-benzo[b][1,4]oxazin-6-yl)thieno[2,3-b]pyrazin-2(1H)-one] | 6.25 (≈ 4.52 µg/mL) | 699 | 1190 |
| Nc1nc2sc(CNC(=O)C3CCN(CC(O)(Cn4cncn4)c4ccc(F)cc4F)CC3)cc2n(-c2ccc3c(c2)N(c2ccccc2)CCO3)c1=O (stereo not drawn) [Compound I-140, N-((3-amino-2-oxo-1-(4-phenyl-3,4-dihydro-2H-benzo[b][1,4]oxazin-6-yl)-1,2-dihydrothieno[2,3-b]pyrazin-6-yl)methyl)-1-(2-(2,4-difluorophenyl)-2-hydroxy-3-(1H-1,2,4-triazol-1-yl)propyl)piperidine-4-carboxamide] | 6.3 (≈ 4.75 µg/mL) | 746 | 434 |
| Nc1nc2scc(C(=O)N[C@H]3CCN(CC(O)(Cn4cncn4)c4ccc(F)cc4F)C3)c2n(-c2ccc3c(c2)N(c2ccccc2)CCO3)c1=O (stereo partly drawn) [Compound I-17, 3-amino-N-((3S)-1-(2-(2,4-difluorophenyl)-2-hydroxy-3-(1H-1,2,4-triazol-1-yl)propyl)pyrrolidin-3-yl)-2-oxo-1-(4-phenyl-3,4-dihydro-2H-benzo[b][1,4]oxazin-6-yl)-1,2-dihydrothieno[2,3-b]pyrazine-7-carboxamide] | 45 (≈ 32.7 µg/mL) | 2670 | 2700 |
| Nc1nc2sc(C(=O)NC3CCN(C[C@](O)(Cn4cncn4)c4ccc(F)cc4F)CC3)cc2n(-c2ccc3c(c2)N(c2ccccc2)CCO3)c1=O [Compound I-7, (S)-3-amino-N-(1-(2-(2,4-difluorophenyl)-2-hydroxy-3-(1H-1,2,4-triazol-1-yl)propyl)piperidin-4-yl)-2-oxo-1-(4-phenyl-3,4-dihydro-2H-benzo[b][1,4]oxazin-6-yl)-1,2-dihydrothieno[2,3-b]pyrazine-6-carboxamide] | 0.75 (≈ 0.555 µg/mL) | 22.8 | 76.4 |
| Cc1ccc(-n2c(=O)c(N)nc3sc(C(=O)NC4CCN(C[C@](O)(Cn5cncn5)c5ccc(F)cc5F)CC4)cc32)cc1Oc1ccccc1 [Compound I-25, (S)-3-amino-N-(1-(2-(2,4-difluorophenyl)-2-hydroxy-3-(1H-1,2,4-triazol-1-yl)propyl)piperidin-4-yl)-1-(4-methyl-3-phenoxyphenyl)-2-oxo-1,2-dihydrothieno[2,3-b]pyrazine-6-carboxamide] | 0.5 (≈ 0.356 µg/mL) | 171 | 299 |
| Nc1nc2sc(C(=O)Nc3ccc(CN4CCN(CC(O)(Cn5cncn5)c5ccc(F)cc5F)CC4)cc3)cc2n(-c2ccc3c(c2)N(c2ccccc2)CCO3)c1=O (stereo not drawn) [Compound I-9, 3-amino-N-(4-((4-(2-(2,4-difluorophenyl)-2-hydroxy-3-(1H-1,2,4-triazol-1-yl)propyl)piperazin-1-yl)methyl)phenyl)-2-oxo-1-(4-phenyl-3,4-dihydro-2H-benzo[b][1,4]oxazin-6-yl)-1,2-dihydrothieno[2,3-b]pyrazine-6-carboxamide] | 10 (≈ 8.31 µg/mL) | 136 | 3870 |
| Nc1nc2sc(CNCCC(O)(Cn3cncn3)c3ccc(F)cc3F)cc2n(-c2ccc3c(c2)N(c2ccccc2)CCO3)c1=O (stereo not drawn) [Compound I-74, 3-amino-6-(((3-(2,4-difluorophenyl)-3-hydroxy-4-(1H-1,2,4-triazol-1-yl)butyl)amino)methyl)-1-(4-phenyl-3,4-dihydro-2H-benzo[b][1,4]oxazin-6-yl)thieno[2,3-b]pyrazin-2(1H)-one] | 12 (≈ 7.88 µg/mL) | 429 | 853 |
| Nc1nc2sc(CN3CCN(CC(O)(Cn4cncn4)c4ccc(F)cc4F)CC3)cc2n(-c2ccc3c(c2)N(c2ccccc2)CCO3)c1=O (stereo not drawn) [Compound I-68, 3-amino-6-((4-(2-(2,4-difluorophenyl)-2-hydroxy-3-(1H-1,2,4-triazol-1-yl)propyl)piperazin-1-yl)methyl)-1-(4-phenyl-3,4-dihydro-2H-benzo[b][1,4]oxazin-6-yl)thieno[2,3-b]pyrazin-2(1H)-one] | 0.75 (≈ 0.534 µg/mL) | 417 | 545 |
| Nc1nc2sc(C(=O)NCCN3CCN(CC(O)(Cn4cncn4)c4ccc(F)cc4F)CC3)cc2n(-c2ccc3c(c2)N(c2ccccc2)CCO3)c1=O (stereo not drawn) [Compound I-15, 3-amino-N-(2-(4-(2-(2,4-difluorophenyl)-2-hydroxy-3-(1H-1,2,4-triazol-1-yl)propyl)piperazin-1-yl)ethyl)-2-oxo-1-(4-phenyl-3,4-dihydro-2H-benzo[b][1,4]oxazin-6-yl)-1,2-dihydrothieno[2,3-b]pyrazine-6-carboxamide] | 2.75 (≈ 2.11 µg/mL) | 30.4 | 188 |
| Nc1nc2sc(CNC3CCN(CC(O)(Cn4cncn4)c4ccc(F)cc4F)C(=O)C3)cc2n(-c2ccc3c(c2)N(c2ccccc2)CCO3)c1=O (stereo not drawn) [Compound I-141, 3-amino-6-(((1-(2-(2,4-difluorophenyl)-2-hydroxy-3-(1H-1,2,4-triazol-1-yl)propyl)-2-oxopiperidin-4-yl)amino)methyl)-1-(4-phenyl-3,4-dihydro-2H-benzo[b][1,4]oxazin-6-yl)thieno[2,3-b]pyrazin-2(1H)-one] | 6.3 (≈ 4.66 µg/mL) | 342 | 620 |
| Nc1nc2sc(C(=O)NC3CCN(CC(O)(Cn4cncn4)c4ccc(F)cc4F)CC3)cc2n(-c2ccc3ccn(-c4ccccc4)c3c2)c1=O (stereo not drawn) [Compound I-13, 3-amino-N-(1-(2-(2,4-difluorophenyl)-2-hydroxy-3-(1H-1,2,4-triazol-1-yl)propyl)piperidin-4-yl)-2-oxo-1-(1-phenyl-1H-indol-6-yl)-1,2-dihydrothieno[2,3-b]pyrazine-6-carboxamide] | 0.37 (≈ 0.267 µg/mL) | 50.4 | 75.1 |
| Nc1nc2sc(CNC3CCN(C[C@](O)(Cn4cncn4)c4ccc(F)cc4F)CC3)cc2n(-c2ccc3c(c2)N(c2ccccc2)CCO3)c1=O [Compound I-63, (S)-3-amino-6-(((1-(2-(2,4-difluorophenyl)-2-hydroxy-3-(1H-1,2,4-triazol-1-yl)propyl)piperidin-4-yl)amino)methyl)-1-(4-phenyl-3,4-dihydro-2H-benzo[b][1,4]oxazin-6-yl)thieno[2,3-b]pyrazin-2(1H)-one] | 9 (≈ 6.53 µg/mL) | 377 | 591 |
| Nc1nc2sc(CN[C@@H]3CCN(CC[C@@](O)(Cn4cncn4)c4ccc(F)cc4F)C3)cc2n(-c2ccc3c(c2)N(c2ccccc2)CCO3)c1=O [Compound I-123, 3-amino-6-((((R)-1-((S)-3-(2,4-difluorophenyl)-3-hydroxy-4-(1H-1,2,4-triazol-1-yl)butyl)pyrrolidin-3-yl)amino)methyl)-1-(4-phenyl-3,4-dihydro-2H-benzo[b][1,4]oxazin-6-yl)thieno[2,3-b]pyrazin-2(1H)-one] | 11.5 (≈ 8.35 µg/mL) | 145 | 238 |
| Nc1nc2sc(C(=O)NC3CCN(CC(O)(Cn4cncn4)c4ccc(F)cc4F)CC3)cc2n(-c2ccc3c(c2)N(c2ccccc2)CCC3)c1=O (stereo not drawn) [Compound I-16, 3-amino-N-(1-(2-(2,4-difluorophenyl)-2-hydroxy-3-(1H-1,2,4-triazol-1-yl)propyl)piperidin-4-yl)-2-oxo-1-(1-phenyl-1,2,3,4-tetrahydroquinolin-7-yl)-1,2-dihydrothieno[2,3-b]pyrazine-6-carboxamide] | 0.6 (≈ 0.443 µg/mL) | 16 | 140 |
| Nc1nc2scc(C(=O)NC3CCN(C[C@](O)(Cn4cncn4)c4ccc(F)cc4F)CC3)c2n(-c2ccc3c(c2)N(c2ccccc2)CCO3)c1=O [Compound I-35, (S)-3-amino-N-(1-(2-(2,4-difluorophenyl)-2-hydroxy-3-(1H-1,2,4-triazol-1-yl)propyl)piperidin-4-yl)-2-oxo-1-(4-phenyl-3,4-dihydro-2H-benzo[b][1,4]oxazin-6-yl)-1,2-dihydrothieno[2,3-b]pyrazine-7-carboxamide] | 25 (≈ 18.5 µg/mL) | 1950 | 1840 |
| Nc1nc2sc(CNC3CN(CC(O)(Cn4cncn4)c4ccc(F)cc4F)C3)cc2n(-c2ccc3c(c2)N(c2ccccc2)CCO3)c1=O (stereo not drawn) [Compound I-66, 3-amino-6-(((1-(2-(2,4-difluorophenyl)-2-hydroxy-3-(1H-1,2,4-triazol-1-yl)propyl)azetidin-3-yl)amino)methyl)-1-(4-phenyl-3,4-dihydro-2H-benzo[b][1,4]oxazin-6-yl)thieno[2,3-b]pyrazin-2(1H)-one] | 22.5 (≈ 15.7 µg/mL) | 1060 | 1380 |
